# Measurements taken from patent US8088801B2, “Aryloazol-2-yl cyanoethylamino compounds, method of making and method of using thereof” (Merial Limited, priority 2007, dated 2012).
# What was measured:
# Haemonchus contortus [1] = experiment: Method B: Haemonchus contortus in vivo in Mongolian gerbil, oral gavage; set-up: species or system Mongolian gerbil (Meriones unguiculatus); conditions: 72 h, Mongolian gerbils, read-out: reduction in nematode infestation; for inhibition in vivo at 100 mg/kg: necropsy 3 days after treatment
# Protocol: Method B: Screening Method to Test Activity of Compounds Against Haemonchus contortus In Vivo in Mongolian Gerbil (Meriones unguiculatus).
# Mongolian gerbils, at least five weeks old, were immunosuppressed and artificially infected with ca. 1000 ensheathed Haemonchus contortus third instar larvae. Six days after infection, the Mongolian gerbils were treated by oral gavage with the test compounds, dissolved in a mixture of 2 parts DMSO and 1 part polyethylene glycol (PEG400), at doses of 100 mg/kg and dissolved in pure polyethylene glycol (PEG400) at doses of 10 and 1 mg/kg. Jirds treated only with the placebo (2 parts DMSO and 1 part PEG400 or pure PEG400) served as controls. On day 9 (3 days after treatment) the jirds were euthanized and necropsied for recovery of parasites from the stomach. Efficacy was calculated as the average % reduction in the number of worms in each test group compared with the average number of worms from the control group. […] Compound numbers 1.001, 1.008, 1.012, 1.013 and 1.014 provided at least 95% reduction in nematode infestation in Mongolian gerbils treated by oral gavage with test article at a dose of 100 mg/kg. Compound numbers 1.012, 1.033, 1.064, 2.008, 2.037, 2.038, 2.040, 2.041, 3.001 provided at least 95% reduction in nematode infestation at a dose of 10 mg/kg. Compound numbers 1.094, 2.048, 3.001, 3.007 and 3.009, provided at least 95% reduction in nematode infestation at a dose of 1 mg/kg. Compound numbers 3.005, 3.006, 3.011, 3.012, 3.017 and 3.019, provided at least 95% reduction in nematode infestation at a dose of 0.5 mg/kg.
# [2] = test system: Trichostrongylus colubriformis; experiment: Method D: screening against Trichostrongylus colubriformis, L1 larvae in microtitre plate; conditions: 96 h, 4 days assessment, read-out: motility inhibition; for inhibition at 0.15 ppm: test concentration 0.15 ppm; for inhibition at 0.04 ppm: test concentration 0.04 ppm; for inhibition at 0.01 ppm: test concentration 0.01 ppm
# Protocol: Method D: Screening Method to Test Activity of Compounds Against Trichostrongylus colubriformis.
# Twenty L1 Trichostrongylus colubriformis larvae were added to wells of a microtitre plate containing a nutrient medium and the test compound in DMSO. The microtitre plate was then held at 27° C. where the L1 larvae were allowed to develop. An analysis was conducted at 4 days to determine successful development to the L3 stage. Larvae exposed to DMSO and no test compound served as controls. Compounds numbers 1.008, 1.014, 1.042, 1.047, 1.048, 1.073, 2.001, 2.003 and 2.020, gave at least 90% motility inhibition at a test concentration of 0.15 ppm at the 4 days assessment. Compounds numbers 1.001, 1.003, 1.007, 1.011, 1.037, 1.038, 1.043, 1.056, 1.066, 1.070, 1.071, 2.012 and 2.016, gave at least 90% motility inhibition at a test concentration of 0.04 ppm at the 4 days assessment. Compounds numbers 1.012, 1.020, 1.021, 1.033, 1.034, 1.039, 1.064, 1.065, 2.008, 2.009 and 3.005 gave at least 90% motility inhibition at a test concentration of 0.01 ppm at the 4 days assessment. Compounds numbers 1.094, 2.040, 2.048, 2.049, 3.006, 3.009, 3.011 and 3.012 gave at least 90% motility inhibition at a test concentration of 0.0025 ppm at the 4 days assessment.
# Haemonchus contortus [3] = experiment: Method A: screening against Haemonchus contortus, L1 larvae in microtitre plate; conditions: 96 h, 4 days assessment, read-out: motility inhibition; for inhibition at 0.15 ppm: test concentration 0.15 ppm; for inhibition at 0.01 ppm: test concentration 0.01 ppm; for inhibition at 0.0025 ppm: test concentration 0.0025 ppm; for inhibition at 0.04 ppm: test concentration 0.04 ppm
# Text: Method A: Screening Method to Test Activity of Compounds Against Haemonchus contortus.
smiles,measurement,setting,value
"CC(C#N)(Cn1nc2cc(C(F)(F)F)cc(Cl)c2n1)NC(=O)c1ccc(OC(F)(F)F)cc1 (stereo not shown) [Compound 1.014, N-[2-(4-Chloro-6-trifluoromethyl-2H-benzotriazol-2-yl)-1-cyano-1-methylethyl]-4-trifluoromethoxybenzamide]",inhibition in vivo at 100 mg/kg,Haemonchus contortus [1],≥ 95%
same,inhibition at 0.15 ppm,[2],≥ 90%
same,inhibition at 0.15 ppm,Haemonchus contortus [3],≥ 90%
"COc1c2cc(Cl)cc(Cl)c2nn1CC(C)(C#N)NC(=O)c1ccc(OC(F)(F)F)cc1 (stereo not shown) [Compound 2.020, N-[1-Cyano-2-(5,7-dichloro-3-methoxy-2H-indazol-2-yl)-1-methylethyl]-4-trifluoromethoxybenzamide]",inhibition at 0.15 ppm,[2],≥ 90%
same,inhibition at 0.15 ppm,Haemonchus contortus [3],≥ 90%
"COc1c2cc(Cl)ccc2nn1CC(C)(C#N)NC(=O)c1ccc(OC(F)(F)F)cc1 (stereo not shown) [Compound 2.012, N-[2-(5-Chloro-3-methoxy-2H-indazol-2-yl)-1-cyano-1-methylethyl]-4-trifluoromethoxybenzamide]",inhibition at 0.04 ppm,[2],≥ 90%
same,inhibition at 0.01 ppm,Haemonchus contortus [3],≥ 90%
"CC(C#N)(Cn1nc2ccc(C(F)(F)F)cc2n1)NC(=O)c1ccc(OC(F)(F)F)cc1 (stereo not shown) [Compound 1.008, N-[1-Cyano-1-methyl-2-(5-trifluoromethyl-2H-benzotriazol-2-yl)ethyl]-4-trifluoromethoxybenzamide]",inhibition in vivo at 100 mg/kg,Haemonchus contortus [1],≥ 95%
same,inhibition at 0.15 ppm,[2],≥ 90%
same,inhibition at 0.15 ppm,Haemonchus contortus [3],≥ 90%
"CC(C#N)(Cn1cc2c(Cl)cc(Cl)cc2n1)NC(=O)c1ccc(OC(F)(F)F)cc1 (stereo not shown) [Compound 2.040, N-[1-Cyano-2-(4,6-dichloro-2H-indazol-2-yl)-1-methylethyl]-4-trifluoromethoxybenzamide]",inhibition in vivo at 10 mg/kg,Haemonchus contortus [1],≥ 95%
same,inhibition at 0.0025 ppm,[2]; test concentration 0.0025 ppm,≥ 90%
same,inhibition at 0.0025 ppm,Haemonchus contortus [3],≥ 90%
"CC(C#N)(Cn1nc2ccc(Br)cc2n1)NC(=O)c1ccc(OC(F)(F)F)cc1 (stereo not shown) [Compound 1.020, N-[2-(5-Bromo-2H-benzotriazol-2-yl)-1-cyano-1-methylethyl]-4-trifluoromethoxybenzamide]",inhibition at 0.01 ppm,[2],≥ 90%
same,inhibition at 0.01 ppm,Haemonchus contortus [3],≥ 90%
"CC(C#N)(Cn1cc2ccc(Cl)cc2n1)NC(=O)c1ccc(OC(F)(F)F)cc1 (stereo not shown) [Compound 2.037, N-[2-(6-Chloro-2H-indazol-2-yl)-1-cyano-1-methylethyl]-4-trifluoromethoxybenzamide]",inhibition in vivo at 10 mg/kg,Haemonchus contortus [1],≥ 95%
same,inhibition at 0.0025 ppm,Haemonchus contortus [3],≥ 90%
"CC(C#N)(Cn1cc2cc(Cl)cc(Cl)c2n1)NC(=O)c1ccc(OC(F)(F)F)cc1 (stereo not shown) [Compound 2.003, N-[1-Cyano-2-(5,7-dichloro-2H-indazol-2-yl)-1-methylethyl]-4-trifluoromethoxybenzamide]",inhibition at 0.15 ppm,[2],≥ 90%
same,inhibition at 0.04 ppm,Haemonchus contortus [3],≥ 90%
"COc1c2ncc(Br)c(C)c2nn1CC(C)(C#N)NC(=O)c1ccc(OC(F)(F)F)cc1 (stereo not shown) [Compound 3.007, N-[2-(6-Bromo-3-methoxy-7-methyl-2H-pyrazolo[4,3-b]pyridin-2-yl)-1-cyano-1-methylethyl]-4-trifluoromethoxybenzamide]",inhibition in vivo at 1 mg/kg,Haemonchus contortus [1],≥ 95%
same,inhibition at 0.01 ppm,Haemonchus contortus [3],≥ 90%
"CC(C#N)(Cn1nc2cc(C#N)cc(C(F)(F)F)c2n1)NC(=O)c1ccc(OC(F)(F)F)cc1 (stereo not shown) [Compound 1.056, N-[1-Cyano-2-(6-cyano-4-trifluoromethyl-2H-benzotriazol-2-yl)-1-methylethyl]-4-trifluoromethoxybenzamide]",inhibition at 0.04 ppm,[2],≥ 90%
same,inhibition at 0.04 ppm,Haemonchus contortus [3],≥ 90%
"CC(C#N)(Cn1nc2cc(Cl)cc(C(F)(F)F)c2n1)NC(=O)c1ccc(Oc2ccccc2)cc1 (stereo not shown) [Compound 1.042, N-[2-(6-Chloro-4-trifluoromethyl-2H-benzotriazol-2-yl)-1-cyano-1-methylethyl]-4-phenoxybenzamide]",inhibition at 0.15 ppm,[2],≥ 90%
same,inhibition at 0.04 ppm,Haemonchus contortus [3],≥ 90%
"CC(C#N)(Cn1nc2cccc(Cl)c2n1)NC(=O)c1ccc(OC(F)(F)F)cc1 (stereo not shown) [Compound 1.043, N-[2-(4-Chloro-2H-benzotriazol-2-yl)-1-cyano-1-methylethyl]-4-trifluoromethoxybenzamide]",inhibition at 0.04 ppm,[2],≥ 90%
same,inhibition at 0.04 ppm,Haemonchus contortus [3],≥ 90%
"CC(C#N)(Cn1cc2cc([N+](=O)[O-])ccc2n1)NC(=O)c1ccc(OC(F)(F)F)cc1 (stereo not shown) [Compound 2.001, N-[1-Cyano-1-methyl-2-(5-nitro-2H-indazol-2-yl)ethyl]-4-trifluoromethoxybenzamide]",inhibition at 0.15 ppm,[2],≥ 90%
same,inhibition at 0.04 ppm,Haemonchus contortus [3],≥ 90%
"CC(C#N)(Cn1nc2cc(Cl)cc(C(F)(F)F)c2n1)NC(=O)c1ccc(OC(F)(F)F)cc1 (stereo not shown) [Compound 1.037, N-[2-(6-Chloro-4-trifluoromethyl-2H-benzotriazol-2-yl)-1-cyano-1-methylethyl]-4-trifluoromethoxybenzamide]",inhibition at 0.04 ppm,[2],≥ 90%
same,inhibition at 0.01 ppm,Haemonchus contortus [3],≥ 90%
"COc1cc(Cl)c2nn(CC(C)(C#N)NC(=O)c3ccc(OC(F)(F)F)cc3)nc2c1 (stereo not shown) [Compound 1.070, N-[2-(4-Chloro-6-methoxy-2H-benzotriazol-2-yl)-1-cyano-1-methylethyl]-4-trifluoromethoxybenzamide]",inhibition at 0.04 ppm,[2],≥ 90%
same,inhibition at 0.04 ppm,Haemonchus contortus [3],≥ 90%
"Cc1c(Br)cnc2nn(CC(C)(C#N)NC(=O)c3ccc(OC(F)(F)F)cc3)nc12 (stereo not shown) [Compound 3.003, N-[2-(6-Bromo-7-methyl-2H-[1,2,3]triazolo[4,5-b]pyridin-2-yl)-1-cyano-1-methylethyl]-4-trifluoromethoxybenzamide]",inhibition at 0.15 ppm,Haemonchus contortus [3],≥ 90%
"CCC(C#N)(Cn1nc2ccc(Cl)cc2n1)NC(=O)c1ccc(OC(F)(F)F)cc1 (stereo not shown) [Compound 1.047, N-{1-[(5-Chloro-2H-benzotriazol-2-yl)methyl]-1-cyanopropyl}-4-trifluoromethoxybenzamide]",inhibition at 0.15 ppm,[2],≥ 90%
same,inhibition at 0.04 ppm,Haemonchus contortus [3],≥ 90%
"COc1c2ccccc2nn1CC(C)(C#N)NC(=O)c1ccc(OC(F)(F)F)cc1 (stereo not shown) [Compound 2.016, N-[1-Cyano-2-(3-methoxy-2H-indazol-2-yl)-1-methylethyl]-4-trifluoromethoxybenzamide]",inhibition at 0.04 ppm,[2],≥ 90%
same,inhibition at 0.04 ppm,Haemonchus contortus [3],≥ 90%
"Cc1cc(Cl)cc2nn(CC(C)(C#N)NC(=O)c3ccc(Oc4ccccc4)cc3)nc12 (stereo not shown) [Compound 1.039, N-[2-(6-Chloro-4-methyl-2H-benzotriazol-2-yl)-1-cyano-1-methylethyl]-4-phenoxybenzamide]",inhibition at 0.01 ppm,[2],≥ 90%
same,inhibition at 0.01 ppm,Haemonchus contortus [3],≥ 90%
"COc1c2ncc(Cl)cc2nn1CC(C)(C#N)NC(=O)c1ccc(OC(F)(F)F)cc1 (stereo not shown) [Compound 3.001, N-[2-(6-Chloro-3-methoxy-2H-pyrazolo[4,3-b]pyridin-2-yl)-1-cyano-1-methylethyl]-4-trifluoromethoxybenzamide]",inhibition in vivo at 1 mg/kg,Haemonchus contortus [1],≥ 95%
same,inhibition in vivo at 10 mg/kg,Haemonchus contortus [1],≥ 95%
same,inhibition at 0.0025 ppm,Haemonchus contortus [3],≥ 90%
"CC(C#N)(Cn1nc2cc(Cl)c(Cl)cc2n1)NC(=O)c1ccc(OC(F)(F)F)cc1 (stereo not shown) [Compound 1.010, N-[1-Cyano-2-(5,6-dichloro-2H-benzotriazol-2-yl)-1-methylethyl]-4-trifluoromethoxybenzamide]",inhibition at 0.15 ppm,Haemonchus contortus [3],≥ 90%
"CC(C#N)(Cn1nc2cc(C(F)(F)F)cc(C(F)(F)F)c2n1)NC(=O)c1ccc(OC(F)(F)F)cc1 (stereo not shown) [Compound 1.018, N-[2-(4,6-Bis(trifluoromethyl)-2H-benzotriazol-2-yl)-1-cyano-1-methylethyl]-4-trifluoromethoxybenzamide]",inhibition at 0.15 ppm,Haemonchus contortus [3],≥ 90%
"COc1c2c(Cl)cc(Cl)cc2nn1CC(C)(C#N)NC(=O)c1ccc(OC(F)(F)F)cc1 (stereo not shown) [Compound 2.021, N-[1-Cyano-2-(4,6-dichloro-3-methoxy-2H-indazol-2-yl)-1-methylethyl]-4-trifluoromethoxybenzamide]",inhibition at 0.04 ppm,Haemonchus contortus [3],≥ 90%
